# Source: publication PMC5872150 (ACS chemical neuroscience, 2017)
# Where a name gives a salt, the structure may show the parent alone. Read-outs that look alike come from different tables or passages of the source.
# Tests used:
# [1] = test system: CHO-hM1 cells; experiment: Ca2+ assay features: Fluo-4 fluorescent signal of CHO-hM1 cells; format: cell-based, Chinese hamster; conditions: bath application
# [2] = test system: pilocarpine-induced seizures in C57BL/6 mice; experiment: Pilocarpine-induced seizures; format: in vivo, mouse
# [3] = molecular target: T1, human M1 mAChR (Homo sapiens, UniProt P11229)
# T1 sequence (P11229 1-460): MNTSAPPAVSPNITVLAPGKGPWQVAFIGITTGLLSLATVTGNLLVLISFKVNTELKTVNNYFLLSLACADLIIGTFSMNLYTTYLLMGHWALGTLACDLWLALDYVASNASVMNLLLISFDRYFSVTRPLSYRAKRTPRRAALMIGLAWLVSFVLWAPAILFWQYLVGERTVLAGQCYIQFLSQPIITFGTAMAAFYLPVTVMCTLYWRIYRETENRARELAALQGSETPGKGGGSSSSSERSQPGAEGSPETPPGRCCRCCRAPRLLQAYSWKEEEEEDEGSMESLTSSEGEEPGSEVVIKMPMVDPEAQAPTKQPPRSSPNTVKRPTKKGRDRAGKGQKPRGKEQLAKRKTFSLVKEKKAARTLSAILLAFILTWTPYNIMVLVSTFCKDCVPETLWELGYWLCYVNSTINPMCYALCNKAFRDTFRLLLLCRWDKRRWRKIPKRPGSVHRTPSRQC
# [4] = test system: pilocarpine-induced total fluid secretion in C57BL/6 mice; conditions: s.c., pilocarpine 50 mg/kg i.p.
# [5] = molecular target: human α7 nAChR (Homo sapiens, UniProt P36544); conditions: for inhibition of acetylcholine-induced inward current: acetylcholine 1 mM
# human α7 nAChR, sequence (P36544 23-502): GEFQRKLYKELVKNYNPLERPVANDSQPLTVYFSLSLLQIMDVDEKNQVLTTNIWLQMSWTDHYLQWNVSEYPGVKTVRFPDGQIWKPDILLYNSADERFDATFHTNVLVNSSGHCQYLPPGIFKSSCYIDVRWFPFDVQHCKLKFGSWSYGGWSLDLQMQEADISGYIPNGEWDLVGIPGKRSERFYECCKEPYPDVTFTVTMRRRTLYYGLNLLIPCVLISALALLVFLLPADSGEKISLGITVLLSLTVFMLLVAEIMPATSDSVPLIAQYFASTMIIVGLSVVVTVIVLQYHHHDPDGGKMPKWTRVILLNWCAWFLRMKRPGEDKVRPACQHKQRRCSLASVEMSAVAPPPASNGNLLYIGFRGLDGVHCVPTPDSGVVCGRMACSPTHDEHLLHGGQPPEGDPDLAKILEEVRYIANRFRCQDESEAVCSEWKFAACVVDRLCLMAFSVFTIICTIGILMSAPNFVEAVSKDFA
compound,measurement,setting,value
Nc1ncnc2c1ncn2[C@@H]1O[C@H](COP(=O)(O)OP(=O)(O)OP(=O)(O)O)[C@@H](O)[C@H]1O [ATP],effect on Ca2+-dependent fluorescent counts,[1]; ATP 100 μM,rapidly increased the fluorescent counts
C/C=C(/C)C(=O)O[C@H]1C(C)=C2[C@H]([C@@H]1OC(=O)CCCCCCC)[C@@](C)(OC(C)=O)C[C@H](OC(=O)CCC)[C@@]1(O)[C@H]2OC(=O)[C@@]1(C)O [Thapsigargin],effect on Ca2+-dependent fluorescent counts,[1]; thapsigargin 1 μM,smaller and slower increase in the fluorescent counts
"CN1[C@@H]2CC[C@H]1C[C@@H](OC(=O)C(CO)c1ccccc1)C2 (some centres unmarked) [atropine sulfate, Atropine sulfate monohydrate, reference compound]",effect on pilocarpine-induced seizures,[2]; 3 mg/kg s.c. 25 min before pilocarpine 278 mg/kg,blocked the development of seizures in every mouse
ethylatropine bromide,time to behavior score 3 after pilocarpine administration,"[2]; 100 mg/kg s.c. 25 min before pilocarpine 278 mg/kg, all six mice",≤ 30 min
same,effect on pilocarpine-induced seizures,"[2]; 100 mg/kg s.c. 25 min before pilocarpine 278 mg/kg, six mice",experienced at least one tonic seizure
same,fold less potent than atropine at human M1 muscarinic receptors,[3],approximately 3.3 fold
same,approximate IC50 for attenuation of pilocarpine-induced total secretion,[4],~0.3 mg/kg
same,inhibition of acetylcholine-induced inward current,"[5]; 3 μM, n = 3",1.2 ± 8%
same,inhibition of acetylcholine-induced inward current,"[5]; 30 μM, n = 5",29 ± 3%
same,inhibition of acetylcholine-induced inward current,"[5]; 300 μM, n = 4",46 ± 2%
same,fold less potent than atropine sulfate at α7 nicotinic receptors,[5]; ratio of estimated IC50s,~300 fold
